Active and inactive are the calls of the source. The rule behind the calls is not given here.
Assays:
[1] = target: T1, Acetylcholinesterase (Electrophorus electricus, UniProt O42275); assay: Inhibition of electric eel AChE using acetylthiocholine iodide as substrate pre-incubated for 30 mins followed by substrate addition and measured after 5 mins by DTNB reagent based Ellman's method
[2] = target: Cholinesterase (Equus caballus, UniProt P81908); assay: Inhibition of equine serum BuChE using S-butyrylthiocholine iodide as substrate pre-incubated for 30 mins followed by substrate addition and measured after 5 mins by DTNB reagent based Ellman's method
Cholinesterase, sequence (P81908 whole entry): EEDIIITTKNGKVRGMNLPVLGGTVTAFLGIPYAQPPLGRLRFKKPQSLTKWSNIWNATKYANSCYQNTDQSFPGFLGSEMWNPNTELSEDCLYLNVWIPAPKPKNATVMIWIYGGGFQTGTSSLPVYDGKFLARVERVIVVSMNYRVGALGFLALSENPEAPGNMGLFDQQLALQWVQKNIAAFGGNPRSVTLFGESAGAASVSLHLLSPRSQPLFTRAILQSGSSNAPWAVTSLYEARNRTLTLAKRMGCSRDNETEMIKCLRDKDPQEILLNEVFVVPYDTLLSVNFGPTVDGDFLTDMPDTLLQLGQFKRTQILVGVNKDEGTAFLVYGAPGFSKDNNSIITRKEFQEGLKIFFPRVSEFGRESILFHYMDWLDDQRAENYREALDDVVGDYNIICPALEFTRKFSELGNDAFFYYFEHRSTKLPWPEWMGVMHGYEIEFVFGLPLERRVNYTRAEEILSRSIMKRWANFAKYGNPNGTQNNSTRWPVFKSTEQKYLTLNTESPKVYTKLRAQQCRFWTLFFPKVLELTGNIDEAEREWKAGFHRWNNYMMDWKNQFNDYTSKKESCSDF

[3] = in vitro; conditions: PAMPA, pH 7.4
Description: Permeability of the compound at 30 to 50 uM at pH 7.4 by PAMPA-BBB assay

[4] = test system: Mus musculus; assay: Antialzheimer activity in scopolamine-induced C57BL mouse model assessed as increase in residence time in platform area at 30 mg/kg, po administered for 7 days followed by scopolamine administration and measured after 5 days by Morris water maze test; format: functional, organism-based; conditions: time 12.0 day
[5] = test system: BV-2; assay: Cytotoxicity against mouse BV-2 cells assessed as reduction in cell viability at 20 to 50 uM incubated for 24 hrs by MTT assay; format: toxicity, cell-based; conditions: bv-2, 24 h, dose 20-50 µM
[6] = test system: PC-12; assay: Cytotoxicity against rat PC12 cells assessed as reduction in cell viability at 20 to 50 uM incubated for 24 hrs by MTT assay; format: toxicity, cell-based; conditions: pc-12, 24 h, dose 20-50 µM
[7] = Metal chelating activity assessed as Cu2+-compound complex formation by measuring drop in intensity of absorption curve at 50 uM incubated for 1 hr in presence of CuCl2 by UV-Visible spectrophotometry
[8] = Acute toxicity in C57BL mouse assessed as lung damage upto 2000 mg/kg, po administered as single dose and measured after 2 weeks by hematoxylin and eosin staining based analysis; format: organism-based; conditions: in vivo, 336 h
[9] = test system: Mus musculus; assay: Antialzheimer activity in scopolamine-induced C57BL mouse model assessed as prevention of blurred borders in cortical cells of hippocampal region at 10 to 30 mg/kg, po administered for 7 days followed by scopolamine administration by hematoxylin and eosin staining based analysis; format: functional, organism-based; conditions: dose 10-30 mg/kg
[10] = test system: Mus musculus; assay: Antialzheimer activity in scopolamine-induced C57BL mouse model assessed as effect on swimming speed at 10 to 30 mg/kg, po administered for 7 days followed by scopolamine administration and measured after 4 days by Morris water maze test; format: functional, organism-based; conditions: dose 10-30 mg/kg, time 11.0 day
[11] = Acute toxicity in C57BL mouse assessed as kidney damage upto 2000 mg/kg, po administered as single dose and measured after 2 weeks by hematoxylin and eosin staining based analysis; format: organism-based; conditions: in vivo, 336 h
[12] = test system: Mus musculus; assay: Antialzheimer activity in scopolamine-induced C57BL mouse model assessed as prevention of irregular cellular arrangements in cortical cells of hippocampal region at 10 to 30 mg/kg, po administered for 7 days followed by scopolamine administration by hematoxylin and eosin staining based analysis; format: functional, organism-based; conditions: dose 10-30 mg/kg
[13] = test system: BV-2; assay: Anti-neuroinflammatory activity against LPS-induced mouse BV-2 cells assessed as decrease in COX-2 protein expression pre-incubated for 1 hr followed by LPS addition and measured after 24 hrs by Western blotting analysis; format: functional, cell-based; conditions: dose 1-10 µM
[14] = test system: BV-2; assay: Anti-neuroinflammatory activity against LPS-induced mouse BV-2 cells assessed as inhibition of TNF-alpha production pre-incubated for 1 hr followed by LPS addition and measured after 24 hrs by ELISA; format: functional, cell-based
[15] = Hepatotoxicity in mouse AML12 cells assessed as reduction in cell viability at 20 to 100 uM incubated for 24 hrs by MTT assay; format: toxicity, cell-based; conditions: aml12, 24 h, dose 20-100 µM
[16] = Toxicity in C57BL mouse assessed as change in body weight at 10 to 30 mg/kg, po measured after 7 days; format: organism-based; conditions: in vivo, 168 h, dose 10-30 mg/kg, time 7 day
[17] = test system: PC-12; assay: Antioxidant activity in H2O2-induced rat PC12 cells assessed as reduction in intracellular ROS level incubated for 1 hr followed by H2O2 addition and measured after 5 hrs by DCFH-DA staining based laser confocal microscopy; format: functional, cell-based; conditions: dose 10-20 µM, time 6.0 hrs
[18] = test system: BV-2; assay: Anti-neuroinflammatory activity against LPS-induced mouse BV-2 cells assessed as inhibition of IL-1beta production pre-incubated for 1 hr followed by LPS addition and measured after 24 hrs by ELISA; format: functional, cell-based
[19] = test system: Mus musculus; assay: Antialzheimer activity in scopolamine-induced C57BL mouse model assessed as decrease in escape latency at 10 to 30 mg/kg, po administered for 7 days followed by scopolamine administration and measured after 4 days by Morris water maze test; format: functional, organism-based; conditions: dose 10-30 mg/kg, time 11.0 day
[20] = Metal chelating activity assessed as Cu2+-compound complex formation by measuring red shift in maximum absorption wavelength at 50 uM incubated for 1 hr in presence of CuCl2 by UV-Visible spectrophotometry
[21] = target: Acetylcholinesterase (Electrophorus electricus) (UniProt O42275); assay: Mixed type inhibition of electric eel AChE using acetylthiocholine iodide as substrate pre-incubated for 30 mins followed by substrate addition and measured after 5 mins by DTNB reagent based Ellman's method; conditions: dose 0-0.4 µM, time 35.0 min
Acetylcholinesterase (Electrophorus electricus), sequence (O42275 24-633 limits assumed): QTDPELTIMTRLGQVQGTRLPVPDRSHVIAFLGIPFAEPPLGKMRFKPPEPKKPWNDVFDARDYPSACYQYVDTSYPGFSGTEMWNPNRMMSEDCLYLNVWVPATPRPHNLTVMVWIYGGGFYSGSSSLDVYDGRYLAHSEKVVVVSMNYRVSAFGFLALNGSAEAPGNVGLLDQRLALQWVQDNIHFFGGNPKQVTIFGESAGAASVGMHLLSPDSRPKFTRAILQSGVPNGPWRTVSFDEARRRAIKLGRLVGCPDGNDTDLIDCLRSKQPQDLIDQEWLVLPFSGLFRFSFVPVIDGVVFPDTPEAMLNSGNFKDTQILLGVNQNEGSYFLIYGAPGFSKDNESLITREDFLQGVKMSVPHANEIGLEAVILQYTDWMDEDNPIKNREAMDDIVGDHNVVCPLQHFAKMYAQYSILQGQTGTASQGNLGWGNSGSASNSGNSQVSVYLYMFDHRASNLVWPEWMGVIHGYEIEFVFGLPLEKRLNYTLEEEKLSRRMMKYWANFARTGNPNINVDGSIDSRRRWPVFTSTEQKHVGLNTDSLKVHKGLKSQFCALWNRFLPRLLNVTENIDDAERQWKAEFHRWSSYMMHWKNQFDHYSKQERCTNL

[22] = test system: BV-2; assay: Anti-neuroinflammatory activity against LPS-induced mouse BV-2 cells assessed as decrease in iNOS protein expression pre-incubated for 1 hr followed by LPS addition and measured after 24 hrs by Western blotting analysis; format: functional, cell-based; conditions: dose 1-10 µM, time 25.0 hrs
[23] = test system: Mus musculus; assay: Antialzheimer activity in scopolamine-induced C57BL mouse model assessed as increase in crossing frequency in platform area at 30 mg/kg, po administered for 7 days followed by scopolamine administration and measured after 5 days by Morris water maze test; format: functional, organism-based; conditions: time 12.0 day
[24] = Acute toxicity in C57BL mouse assessed as liver damage upto 2000 mg/kg, po administered as single dose and measured after 2 weeks by hematoxylin and eosin staining based analysis; format: organism-based; conditions: in vivo, 336 h
[25] = Acute toxicity in C57BL mouse assessed as spleen damage upto 2000 mg/kg, po administered as single dose and measured after 2 weeks by hematoxylin and eosin staining based analysis; format: organism-based; conditions: in vivo, 336 h
[26] = test system: PC-12; assay: Neuroprotective activity against H2O2-induced cell death in rat PC12 cells assessed as increase in survival rate pre-incubated for 3 hrs followed by H2O2 addition and measured after 24 hrs by MTT assay; format: functional, cell-based; conditions: dose 1-20 µM, time 27.0 hrs
[27] = Hepatotoxicity in human HepG2 cells assessed as reduction in cell viability at 20 to 100 uM incubated for 24 hrs by MTT assay; format: toxicity, cell-based; conditions: hepg2, 24 h, dose 20-100 µM
[28] = target: T1, Acetylcholinesterase; assay: Inhibition of electric eel AChE assessed as dissociation constant using acetylthiocholine iodide as substrate pre-incubated for 30 mins followed by substrate addition and measured after 5 mins by DTNB reagent based Ellman's method
[29] = test system: BV-2; assay: Anti-neuroinflammatory activity against LPS-induced mouse BV-2 cells assessed as inhibition of NO production pre-incubated for 1 hr followed by LPS addition and measured after 24 hrs by Griess reagent based assay; format: functional, cell-based
[30] = Acute toxicity in C57BL mouse assessed as heart damage upto 2000 mg/kg, po administered as single dose and measured after 2 weeks by hematoxylin and eosin staining based analysis; format: organism-based; conditions: in vivo, 336 h
[31] = Metal chelating activity assessed as Zn2+-compound complex formation by measuring blue shift in maximum absorption wavelength at 50 uM incubated for 1 hr in presence of ZnCl2 by UV-Visible spectrophotometry

T1 sequence (O42275 whole entry): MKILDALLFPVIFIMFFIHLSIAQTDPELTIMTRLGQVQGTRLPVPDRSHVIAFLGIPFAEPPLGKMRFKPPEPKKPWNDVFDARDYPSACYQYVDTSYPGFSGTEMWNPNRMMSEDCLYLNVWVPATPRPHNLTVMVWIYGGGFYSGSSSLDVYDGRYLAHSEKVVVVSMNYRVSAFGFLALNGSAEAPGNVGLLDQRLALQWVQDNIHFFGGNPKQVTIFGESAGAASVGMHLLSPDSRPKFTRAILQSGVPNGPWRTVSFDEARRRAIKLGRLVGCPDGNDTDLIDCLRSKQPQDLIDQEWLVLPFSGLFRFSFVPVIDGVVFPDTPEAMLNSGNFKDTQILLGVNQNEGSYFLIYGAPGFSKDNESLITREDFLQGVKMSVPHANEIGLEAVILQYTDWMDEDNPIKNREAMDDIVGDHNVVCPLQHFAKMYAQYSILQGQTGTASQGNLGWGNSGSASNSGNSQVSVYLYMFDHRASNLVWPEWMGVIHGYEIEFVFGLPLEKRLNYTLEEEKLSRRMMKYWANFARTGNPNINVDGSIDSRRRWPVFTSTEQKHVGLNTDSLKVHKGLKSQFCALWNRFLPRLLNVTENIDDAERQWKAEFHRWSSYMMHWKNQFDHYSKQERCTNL

O=C(CNS(=O)(=O)c1cc(Cl)c(F)cc1F)Nc1ccc2c(=O)n3c(nc2c1)CCC3
IC50 [1]: > 50 µM | IC50 [2]: > 50 µM

COc1ccc(S(=O)(=O)NCC(=O)Nc2ccc3c(=O)n4c(nc3c2)CCC4)cc1
IC50 [1]: 5.58 µM | IC50 [2]: 32.9 µM

O=C(CNS(=O)(=O)c1ccc(Cl)cc1)Nc1ccc2c(=O)n3c(nc2c1)CCC3
IC50 [1]: 48.3 µM | IC50 [2]: > 50 µM

O=C(CNS(=O)(=O)c1ccccc1Br)Nc1ccc2c(=O)n3c(nc2c1)CCC3
IC50 [1]: 4.17 µM | IC50 [2]: > 50 µM

O=C(CNS(=O)(=O)c1cccc(C(F)(F)F)c1)Nc1ccc2c(=O)n3c(nc2c1)CCC3
IC50 [1]: 20.9 µM | IC50 [2]: > 50 µM

O=C(CNS(=O)(=O)c1ccccc1Cl)Nc1ccc2c(=O)n3c(nc2c1)CCC3
IC50 [1]: 2.57 µM | IC50 [2]: > 50 µM

CNC(=C[N+](=O)[O-])NCCSCc1ccc(CN(C)C)o1 [RANITIDINE]
Papp at 50 µM [3]: 0.06 ×10⁻⁶ cm/s

CC(C)c1cc(C(C)C)c(S(=O)(=O)NCC(=O)Nc2ccc3c(=O)n4c(nc3c2)CCC4)c(C(C)C)c1
IC50 [1]: > 50 µM | IC50 [2]: > 50 µM

O=C(CNS(=O)(=O)c1ccc(C(F)(F)F)cc1)Nc1ccc2c(=O)n3c(nc2c1)CCC3
IC50 [1]: 24.8 µM | IC50 [2]: > 50 µM

O=C(CNS(=O)(=O)c1ccc(Br)cc1)Nc1ccc2c(=O)n3c(nc2c1)CCC3
IC50 [1]: > 50 µM | IC50 [2]: > 50 µM

O=C(CNS(=O)(=O)c1ccc(F)cc1)Nc1ccc2c(=O)n3c(nc2c1)CCC3
IC50 [1]: 5.68 µM | IC50 [2]: > 50 µM

O=C(CNS(=O)(=O)c1ccccc1OC(F)(F)F)Nc1ccc2c(=O)n3c(nc2c1)CCC3
IC50 [1]: 0.78 µM | IC50 [2]: > 50 µM

COc1ccc(S(=O)(=O)NCC(=O)Nc2ccc3c(=O)n4c(nc3c2)CCC4)c(OC)c1
IC50 [1]: 9.19 µM | IC50 [2]: > 50 µM

O=C(CNS(=O)(=O)c1cccc(OC(F)(F)F)c1)Nc1ccc2c(=O)n3c(nc2c1)CCC3
IC50 [1]: > 50 µM | IC50 [2]: > 50 µM

O=C(CNS(=O)(=O)c1ccccc1F)Nc1ccc2c(=O)n3c(nc2c1)CCC3
IC50 [1]: 5.25 µM | IC50 [2]: > 50 µM

O=C(CNS(=O)(=O)c1ccc(F)c(Cl)c1)Nc1ccc2c(=O)n3c(nc2c1)CCC3
IC50 [1]: 8.08 µM | IC50 [2]: > 50 µM

O=C(CNS(=O)(=O)c1cccc(Br)c1)Nc1ccc2c(=O)n3c(nc2c1)CCC3
IC50 [1]: 7.88 µM | IC50 [2]: > 50 µM

O=C(CNS(=O)(=O)c1ccccc1C(F)(F)F)Nc1ccc2c(=O)n3c(nc2c1)CCC3
Activity [4]: Active | Activity [5]: Non-Toxic | Activity [6]: Non-Toxic | Activity [7]: Active | Activity [8]: Non-Toxic | Activity [9]: Active | Activity [10]: inactive | IC50 [1]: 0.24 µM | Activity [11]: Non-Toxic | Activity [12]: Active | Activity [13]: Dose-Dependent Effect | IC50 [14]: 8.62 µM | Activity ([14]; time 25.0 hrs): Dose-Dependent Effect | Activity [15]: Non-Toxic | Activity [16]: Non-Toxic | Activity [17]: Dose-Dependent Effect | IC50 [18]: 1.69 µM | Activity ([18]; time 25.0 hrs): Dose-Dependent Effect | Activity [19]: Active | Activity [20]: Active | IC50 [2]: > 50 µM | inhibition [21]: Dose-Dependent Effect | Activity [22]: Dose-Dependent Effect | Activity [23]: Active | Activity [24]: Non-Toxic | Activity [25]: Non-Toxic | Activity [26]: Dose-Dependent Effect | Papp at 50 µM [3]: 10.5 ×10⁻⁶ cm/s | Activity [27]: Non-Toxic | Ki [28]: 0.24 µM | IC50 [29]: 3.34 µM | Activity ([29]; time 25.0 hrs): Dose-Dependent Effect | Activity [30]: Non-Toxic | Activity [31]: Active
